# From PubChem BioAssay AID2060896 (Molecular Pharmacology Branch, DTP, NCI, 2025)
# Tested on: 941728-121-R-J1-PDC complex spheroid viability
# Experiment: Anticancer human tumor 941728-121-R-J1-PDC patient-derived lung adenocarcinoma cell line growth inhibition [RAS]
# Details: for IC50: curve of first compound; for viability, T/C: stronger effect = lower value
# How it was run: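 Tumour cells grown as complex spheroids with HUVEC endothelial cells and mesenchymal stem cells, treated with RAS pathway inhibitor combinations. Each agent spans half-log steps from near clinical Cmax, or 10 microM where Cmax is unknown.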
# [1] = second compound 0.0316 µM, first compound 0.0316 µM
# [2] = second compound 0.0316 µM, first compound 0.1 µM
# [3] = second compound 0.0316 µM, first compound 0.316 µM
# [4] = second compound 0.0316 µM, first compound 1 µM
# [5] = second compound 0.1 µM, first compound 0.0316 µM
# [6] = second compound 0.1 µM, first compound 0.1 µM
# [7] = second compound 0.1 µM, first compound 0.316 µM
# [8] = second compound 0.1 µM, first compound 1 µM
# [9] = second compound 0.316 µM, first compound 0.0316 µM
# [10] = second compound 0.316 µM, first compound 0.1 µM
# [11] = second compound 0.316 µM, first compound 0.316 µM
# [12] = second compound 0.316 µM, first compound 1 µM
# [13] = second compound 1 µM, first compound 0.0316 µM
# [14] = second compound 1 µM, first compound 0.1 µM
# [15] = second compound 1 µM, first compound 0.316 µM
# [16] = second compound 1 µM, first compound 1 µM
# 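Note: spheroids exposed to compounds for 7 days before readout.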
# 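Throughout, for viability, T/C: 100% = DMSO vehicle control viability.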
structure (smiles),measurement,setting,value
CCN1CCN(Cc2ccc(Nc3ncc(F)c(-c4cc(F)c5nc(C)n(C(C)C)c5c4)n3)nc2)CC1 + C#Cc1c(F)ccc2cc(O)cc(-c3ncc4c(N5CC6CCC(C5)N6)nc(OCC56CCCN5CC(F)C6)nc4c3F)c12,IC50,second compound 0.0316 µM,> 1 µM
same,IC50,second compound 0.1 µM,> 1 µM
same,IC50,second compound 0.316 µM,> 1 µM
same,IC50,second compound 1 µM,< 0.00316 µM
same,IC50,second compound 3.16 µM,< 0.00316 µM
same,IC50,second compound 10 µM,< 0.00316 µM
same,"viability, T/C","second compound 0.0316 µM, first compound 0.00316 µM",75.4%
same,"viability, T/C","second compound 0.0316 µM, first compound 0.01 µM",70.4%
same,"viability, T/C",[1],58%
same,"viability, T/C",[2],49%
same,"viability, T/C",[3],58%
same,"viability, T/C",[4],59.7%
same,"viability, T/C","second compound 0.1 µM, first compound 0.00316 µM",71.4%
same,"viability, T/C","second compound 0.1 µM, first compound 0.01 µM",62%
same,"viability, T/C",[5],52.9%
same,"viability, T/C",[6],46.7%
same,"viability, T/C",[7],55.9%
same,"viability, T/C",[8],68.9%
same,"viability, T/C","second compound 0.316 µM, first compound 0.00316 µM",55.6%
same,"viability, T/C","second compound 0.316 µM, first compound 0.01 µM",56.8%
same,"viability, T/C",[9],38.3%
same,"viability, T/C",[10],45.2%
same,"viability, T/C",[11],51%
same,"viability, T/C",[12],57.3%
same,"viability, T/C","second compound 1 µM, first compound 0.00316 µM",38.2%
same,"viability, T/C","second compound 1 µM, first compound 0.01 µM",34.7%
same,"viability, T/C",[13],31.4%
same,"viability, T/C",[14],35.5%
same,"viability, T/C",[15],41.7%
same,"viability, T/C",[16],50.1%
same,"viability, T/C","second compound 3.16 µM, first compound 0.00316 µM",28.8%
same,"viability, T/C","second compound 3.16 µM, first compound 0.01 µM",26.4%
same,"viability, T/C","second compound 3.16 µM, first compound 0.0316 µM",31.3%
same,"viability, T/C","second compound 3.16 µM, first compound 0.1 µM",25.3%
same,"viability, T/C","second compound 3.16 µM, first compound 0.316 µM",30.9%
same,"viability, T/C","second compound 3.16 µM, first compound 1 µM",36.2%
same,"viability, T/C","second compound 10 µM, first compound 0.00316 µM",23.5%
same,"viability, T/C","second compound 10 µM, first compound 0.01 µM",20.9%
same,"viability, T/C","second compound 10 µM, first compound 0.0316 µM",21.9%
same,"viability, T/C","second compound 10 µM, first compound 0.1 µM",19.8%
same,"viability, T/C","second compound 10 µM, first compound 0.316 µM",18.4%
same,"viability, T/C","second compound 10 µM, first compound 1 µM",16.5%
CC(C)n1nc(-c2ccc3oc(N)nc3c2)c2c(N)ncnc21 + CCn1c(-c2cccnc2C(C)OC)c2c3cc(ccc31)N1CCOC(CC(NC(=O)C(C(C)C)N(C)C(=O)C3(F)CCN(C(=O)C#CC(C)(C)N(C)C)CC3)C(=O)N3CCCC(N3)C(=O)OCC(C)(C)C2)C1,IC50,second compound 0.000949 µM,< 0.000316 µM
same,IC50,second compound 0.003 µM,< 0.000316 µM
same,IC50,second compound 0.00949 µM,< 0.000316 µM
same,IC50,second compound 0.03 µM,< 0.000316 µM
same,IC50,second compound 0.0949 µM,< 0.000316 µM
same,IC50,second compound 0.3 µM,< 0.000316 µM
same,"viability, T/C","second compound 0.000949 µM, first compound 0.000316 µM",21.4%
same,"viability, T/C","second compound 0.000949 µM, first compound 0.001 µM",19.7%
same,"viability, T/C","second compound 0.000949 µM, first compound 0.00316 µM",12.9%
same,"viability, T/C","second compound 0.000949 µM, first compound 0.01 µM",15.4%
same,"viability, T/C","second compound 0.000949 µM, first compound 0.0316 µM",11.6%
same,"viability, T/C","second compound 0.000949 µM, first compound 0.1 µM",6.3%
same,"viability, T/C","second compound 0.003 µM, first compound 0.000316 µM",23.6%
same,"viability, T/C","second compound 0.003 µM, first compound 0.001 µM",19.4%
same,"viability, T/C","second compound 0.003 µM, first compound 0.00316 µM",14.5%
same,"viability, T/C","second compound 0.003 µM, first compound 0.01 µM",15.6%
same,"viability, T/C","second compound 0.003 µM, first compound 0.0316 µM",9.94%
same,"viability, T/C","second compound 0.003 µM, first compound 0.1 µM",7.46%
same,"viability, T/C","second compound 0.00949 µM, first compound 0.000316 µM",21%
same,"viability, T/C","second compound 0.00949 µM, first compound 0.001 µM",17.3%
same,"viability, T/C","second compound 0.00949 µM, first compound 0.00316 µM",19.8%
same,"viability, T/C","second compound 0.00949 µM, first compound 0.01 µM",15.3%
same,"viability, T/C","second compound 0.00949 µM, first compound 0.0316 µM",9.22%
same,"viability, T/C","second compound 0.00949 µM, first compound 0.1 µM",6.25%
same,"viability, T/C","second compound 0.03 µM, first compound 0.000316 µM",20.8%
same,"viability, T/C","second compound 0.03 µM, first compound 0.001 µM",19.7%
same,"viability, T/C","second compound 0.03 µM, first compound 0.00316 µM",16.8%
same,"viability, T/C","second compound 0.03 µM, first compound 0.01 µM",14.8%
same,"viability, T/C","second compound 0.03 µM, first compound 0.0316 µM",8.83%
same,"viability, T/C","second compound 0.03 µM, first compound 0.1 µM",8.55%
same,"viability, T/C","second compound 0.0949 µM, first compound 0.000316 µM",18.8%
same,"viability, T/C","second compound 0.0949 µM, first compound 0.001 µM",20.8%
same,"viability, T/C","second compound 0.0949 µM, first compound 0.00316 µM",17.4%
same,"viability, T/C","second compound 0.0949 µM, first compound 0.01 µM",15.2%
same,"viability, T/C","second compound 0.0949 µM, first compound 0.0316 µM",9.76%
same,"viability, T/C","second compound 0.0949 µM, first compound 0.1 µM",10.1%
same,"viability, T/C","second compound 0.3 µM, first compound 0.000316 µM",21.7%
same,"viability, T/C","second compound 0.3 µM, first compound 0.001 µM",18.9%
same,"viability, T/C","second compound 0.3 µM, first compound 0.00316 µM",18.9%
same,"viability, T/C","second compound 0.3 µM, first compound 0.01 µM",15.9%
same,"viability, T/C","second compound 0.3 µM, first compound 0.0316 µM",10.5%
same,"viability, T/C","second compound 0.3 µM, first compound 0.1 µM",10.8%
C[C@@H](NC(=O)c1ncnc(N)c1Cl)c1ncc(C(=O)Nc2cc(C(F)(F)F)c(Cl)cn2)s1 + C=CC(=O)N1CCN(c2nc(OCC3CCCN3C)nc3c(F)c(-c4nc(N)cc(C)c4C(F)(F)F)c(Cl)cc23)C(C)C1,IC50,second compound 0.00316 µM,< 0.0316 µM
same,IC50,second compound 0.01 µM,< 0.0316 µM
same,IC50,second compound 0.0316 µM,< 0.0316 µM
same,IC50,second compound 0.1 µM,< 0.0316 µM
same,IC50,second compound 0.316 µM,< 0.0316 µM
same,IC50,second compound 1 µM,< 0.0316 µM
same,"viability, T/C","second compound 0.00316 µM, first compound 0.0316 µM",21.6%
same,"viability, T/C","second compound 0.00316 µM, first compound 0.1 µM",21%
same,"viability, T/C","second compound 0.00316 µM, first compound 0.316 µM",21.2%
same,"viability, T/C","second compound 0.00316 µM, first compound 1 µM",25.4%
same,"viability, T/C","second compound 0.00316 µM, first compound 3.16 µM",23.1%
same,"viability, T/C","second compound 0.00316 µM, first compound 10 µM",20.7%
same,"viability, T/C","second compound 0.01 µM, first compound 0.0316 µM",26.2%
same,"viability, T/C","second compound 0.01 µM, first compound 0.1 µM",23.9%
same,"viability, T/C","second compound 0.01 µM, first compound 0.316 µM",23.3%
same,"viability, T/C","second compound 0.01 µM, first compound 1 µM",27.1%
same,"viability, T/C","second compound 0.01 µM, first compound 3.16 µM",20.5%
same,"viability, T/C","second compound 0.01 µM, first compound 10 µM",20.2%
same,"viability, T/C",[1],22.3%
same,"viability, T/C",[2],22%
same,"viability, T/C",[3],20.9%
same,"viability, T/C",[4],22%
same,"viability, T/C","second compound 0.0316 µM, first compound 3.16 µM",23.5%
same,"viability, T/C","second compound 0.0316 µM, first compound 10 µM",20.4%
same,"viability, T/C",[5],26.8%
same,"viability, T/C",[6],24.9%
same,"viability, T/C",[7],22.5%
same,"viability, T/C",[8],23.1%
same,"viability, T/C","second compound 0.1 µM, first compound 3.16 µM",21.9%
same,"viability, T/C","second compound 0.1 µM, first compound 10 µM",20.9%
same,"viability, T/C",[9],20.1%
same,"viability, T/C",[10],20.9%
same,"viability, T/C",[11],21%
same,"viability, T/C",[12],21.6%
same,"viability, T/C","second compound 0.316 µM, first compound 3.16 µM",24.9%
same,"viability, T/C","second compound 0.316 µM, first compound 10 µM",22.2%
same,"viability, T/C",[13],23.4%
same,"viability, T/C",[14],30.2%
same,"viability, T/C",[15],22.1%
same,"viability, T/C",[16],22.5%
same,"viability, T/C","second compound 1 µM, first compound 3.16 µM",27.3%
same,"viability, T/C","second compound 1 µM, first compound 10 µM",22.4%
